Experimental findings from patent EP0538469A1, “SULFONANILIDE DERIVATIVE AND MEDICINE” (NIPPON SHINYAKU COMPANY, LIMITED, priority 1990, dated 1991) are described below.

Counter-ions that a name gives are not always drawn.

Format in all cases: in vivo
Data set [1] has as its system male rabbits. The data set can be described thus: Action to intra urethral pressure and blood pressure, intravenous administration. The following applies: i.v.; for Selectivity (B/A): BP(ED30%↑) / IUP(ED150%↑), hydrochloride; for ED (30%) / ED (150%): Oryctolagus cuniculus, iv, anesthetized male rabbits; for ED (30%): dose increasing blood pressure to an extent of 30%, read-out: BP(B) [BP(ED30%↑)] (converted); for ED (150%): dose increasing intra urethral pressure to an extent of 150%, read-out: IUP(A) [IUP(ED150%↑)]. On the procedure: The experiment was conducted using male rabbits of body weight of 1.4-3.1 kg under fasted condition. The animals were fixed at backs under uretrane(1.2g/kg s.c.) anesthesia, abdomen was subjected to a midline incision and bladder was exposed. In order to prevent the urine stored in the bladder on the intra urethral pressure, the urine in the bladder was compulsorily discharged out of the body. After that, a catheter was inserted into both ureters and the urine discharged from kidney was introduced outside.
The intra urethral pressure(IUP) at the urethra tract of about 0.5-1 cm distance from the neck of the bladder was measured using a microtip transducer transducer equipped with a baloon (filled with physiological saline solution) at the top end. Further, polyethylene tube was inserted into femoral artery to measure the blood pressure (BP).
The drug to be tested was injected into the vein of ear every fifteen minutes and the maximum responses of the increasing action of intra urethral pressure tract and of the increasing action of blood pressure were measured at each dose.

Data set [2] relates to mice (ddY-strain, male). As to the kind of experiment: Acute toxicity, oral, mice. The following applies: observed two weeks. As for the experimental part:
(§1) Numbers of mice (ddY-strain, male, 6-8 weeks age) and rats (SD strain, male, 6-7 weeks age) in each group were 4 and 6, respectively.
(§2) The drug to be tested was orally administered at the dose of 10 ml/kg using an oral probe to the animals which were fasted since one day before (for 16-18 hours). After giving the drug, the animals were returned to the state where both feed and water were available and the general symptom and the dead cases, if any, were checked for two weeks. The drug was suspended in physiological saline solution containing 0.5% of methylcellulose (0.5% MC) and the suspension was given to the animals by oral route.

A short description of data set [3]: Acute toxicity, oral, rats. The following applies: rat, in vivo, SD rats, read-out: Rats LD₅₀. As for the experimental part:
as §1, §2

In data set [4] the test system is rats (SD strain, male). As to the kind of experiment: Acute toxicity, oral, rats. The following applies: observed two weeks. As for the experimental part: as §1, §2

`CS(=O)(=O)Nc1cccc(C(O)CN)c1.Cl` (racemic) [(24A), (±)-3'-(2-Amino-1-hydroxyethyl)methanesulfonanilide hydrochloride, reference compound]: the “Selectivity (B/A)” value in data set [1] is 1.0. In data set [1], the ED (30%) was 0.036 mg/kg. Also, the ED (150%) in data set [1] turned out to be 0.035 mg/kg. Further, the “Mice Dead/ Total” value in data set [2] (1000 mg/kg) is listed as 0 / 4; in data set [2] (3000 mg/kg), 3 / 4. Also, the LD50 at 336 h in data set [3] was greater than 300 mg/kg. The “Rats Dead/ Total” value in data set [4] (30 mg/kg) is listed as 0 / 6; in data set [4] (100 mg/kg), 1 / 6; in data set [4] (300 mg/kg), 1 / 6.

As for `C[C@H](N)[C@H](O)c1cc(NS(C)(=O)=O)ccc1F` (racemic) [(59A), (±)-erythro-3'-(2-Amino-1-hydroxypropyl)-4'-fluoromethanesulfonanilide hydrochloride], in data set [1], the “Selectivity (B/A)” value is recorded as 1.9, the ED (30%) is 0.083 mg/kg and the ED (150%) turned out to be 0.044 mg/kg. Besides, in data set [3], the LD50 at 336 h is greater than 100 mg/kg. In data set [4] (100 mg/kg), the “Rats Dead/ Total” value is 0 / 6.

For the compound `CNCC(O)c1ccc(F)c(NS(C)(=O)=O)c1.Cl` (racemic) [(61A), (±)-2'-Fluoro-5'-(1-hydroxy-2-methylaminoethyl)methanesulfonanilide hydrochloride, reference compound], in data set [1], the “Selectivity (B/A)” value was found to be 1.2, the ED (30%) was 0.037 mg/kg and the ED (150%) was 0.031 mg/kg. In data set [3], the LD50 at 336 h is greater than 300 mg/kg. Further, the “Rats Dead/ Total” value in data set [4] (300 mg/kg) is given as 0 / 6.

As for `CS(=O)(=O)Nc1cc(C(O)CN)c(F)cc1F.Cl` (racemic) [(63A), (±)-5'-(2-Amino-1-hydroxyethyl)-2',4'-difluoromethanesulfonanilide hydrochloride], in data set [1], the “Selectivity (B/A)” value is on record as 2.9, the ED (30%) was 0.19 mg/kg and the ED (150%) came to 0.065 mg/kg. In addition, in data set [3], the LD50 at 336 h was greater than 300 mg/kg. Besides, the “Rats Dead/ Total” value in data set [4] (300 mg/kg) is recorded as 0 / 6.

With `CNCC(O)c1cc(NS(C)(=O)=O)ccc1Cl` (racemic) [(67A), (±)-4'-Chloro-3'-(1-hydorxy-2-methylaminoethyl)methanesulfonanilide hydrochloride, reference compound], in data set [1], the “Selectivity (B/A)” value is given as 4.2, the ED (30%) was 2.93 mg/kg and the ED (150%) worked out at 0.7 mg/kg. Further, the LD50 at 336 h in data set [3] is greater than 300 mg/kg. For the same compound, in data set [4] (300 mg/kg), the “Rats Dead/ Total” value is reported as 0 / 6.

Take `C[C@H](N)[C@H](O)c1ccc(F)c(NS(C)(=O)=O)c1` (racemic) [(70A), (±)-erythro-5'-(2-Amino-1-hydroxypropyl)-2'-fluoromethanesulfonanilide hydrochloride]: in data set [1], the “Selectivity (B/A)” value came to 3.6, the ED (30%) is 0.1 mg/kg and the ED (150%) came out at 0.028 mg/kg. In data set [3], the LD50 at 336 h is greater than 300 mg/kg. The “Rats Dead/ Total” value in data set [4] (300 mg/kg) is given as 2 / 6.

Turning to `CNCC(O)c1cc(NS(C)(=O)=O)c(F)cc1F.Cl` (racemic) [(71A), (±)-2',4'-Difluoro-5'-(1-hydroxy-2-methylaminoethyl)methanesulfonanilide hydrochloride], in data set [1], the “Selectivity (B/A)” value was 2.1, the ED (30%) was 0.095 mg/kg and the ED (150%) turned out to be 0.045 mg/kg. In addition, the LD50 at 336 h in data set [3] is greater than 300 mg/kg. Further, in data set [4] (300 mg/kg), the “Rats Dead/ Total” value is reported as 0 / 6.

Consider `CS(=O)(=O)Nc1cc(F)cc(C(O)CN)c1.Cl` (racemic) [(73A), (±)-3'-(2-Amino-1-hydroxyethyl)-5'-fluoromethanesulfonanilide hydrochloride], for which, in data set [1], the “Selectivity (B/A)” value is listed as 3.0, the ED (30%) is 0.081 mg/kg and the ED (150%) was determined as 0.027 mg/kg. In addition, the LD50 at 336 h in data set [3] was roughly 200 mg/kg. The “Rats Dead/ Total” value in data set [4] (100 mg/kg) is listed as 1 / 6. The “Rats Dead/ Total” value in data set [4] (300 mg/kg) was 5 / 6.

With `CNC[C@H](O)c1ccc(F)c(NS(C)(=O)=O)c1` [(61B)], the LD50 at 336 h in data set [3] turned out to be 36.1 mg/kg. Moreover, the “Rats Dead/ Total” value is recorded as 0 / 6 in data set [4] (3 mg/kg); 2 / 6 in data set [4] (10 mg/kg); 1 / 6 in data set [4] (30 mg/kg); 5 / 6 in data set [4] (100 mg/kg); 6 / 6 in data set [4] (300 mg/kg).
